{"source": "patent US10676446B2", "about": "“Bicyclic quinazolinone derivatives” (Hoffmann-La Roche Inc., priority 2015, dated 2020)"}
{"biological_target": "human ATX (autotaxin, ENPP2), His-tagged (Homo sapiens (Human), UniProt Q13822)", "test": "Human ATX enzyme inhibition assay (fluorescence quenching, MR121 substrate)", "type": "biochemical", "settings": "30 nM ATX, 1 μM MR121 substrate, 30° C., pH 8.0", "how_it_was_run": "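His-tagged human ATX (30 nM final) preincubated 15 min at 30 °C with serially diluted compound in Tris-HCl pH 8.0 buffer with Ca2+, Mg2+ and 0.01% Triton X-100. MR121-labelled fluorescence-quenched substrate then added (1 μM final) for a further 15 min at 30 °C; fluorescence read-out.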", "units": {"IC50": "nM"}}
{"smiles": "CC(C)OCC(=O)N1CCC(c2ccc3ncn(CC(=O)N(C)Cc4ccc(C#N)c(Cl)c4)c(=O)c3c2)CC1", "note": "[Example 135]", "IC50": 1}
{"smiles": "CN(Cc1ccc(C#N)c(Cl)c1)C(=O)Cn1cnc2ccc(C3CCN(C(=O)C4CC4)CC3)cc2c1=O", "note": "[Example 136]", "IC50": 1}
{"smiles": "CN(Cc1ccc(C#N)c(Cl)c1)C(=O)Cn1cnc2ccc(C3CCN(C(=O)C4CCC4)CC3)cc2c1=O", "note": "[Example 137]", "IC50": 2}
{"smiles": "CN(Cc1ccc(C#N)c(Cl)c1)C(=O)Cn1cnc2ccc(C3CCN(C(=O)C4CC(F)C4)CC3)cc2c1=O", "note": "(stereo not shown) [Example 138]", "IC50": 3}
{"smiles": "CN(Cc1ccc(C#N)c(Cl)c1)C(=O)Cn1cnc2ccc(C3CCN(C(=O)C4CC(Cl)C4)CC3)cc2c1=O", "note": "(stereo not shown) [Example 139]", "IC50": 18}
{"smiles": "CN(Cc1ccc(C#N)c(Cl)c1)C(=O)Cn1cnc2ccc(C3CCN(C(=O)C4CC(F)(F)C4)CC3)cc2c1=O", "note": "[Example 140]", "IC50": 47}
{"smiles": "CN(Cc1ccc(C#N)c(Cl)c1)C(=O)Cn1cnc2ccc(C3CCN(C(=O)C4CCO4)CC3)cc2c1=O", "note": "(stereo not shown) [Example 141]", "IC50": 2}
{"smiles": "CN(Cc1ccc(C#N)c(Cl)c1)C(=O)Cn1cnc2ccc(C3CCN(C(=O)C4COC4)CC3)cc2c1=O", "note": "[Example 142]", "IC50": 60}
{"smiles": "CN(Cc1ccc(C#N)c(Cl)c1)C(=O)Cn1cnc2ccc(C3CCN(CC4CCOC4)CC3)cc2c1=O", "note": "(stereo not shown) [Example 143, N-[(3-Chloro-4-cyanophenyl)methyl]-N-methyl-2-[4-oxo-6-[1-(oxolan-3-ylmethyl)piperidin-4-yl]quinazolin-3-yl]acetamide]", "IC50": 46}
{"smiles": "CN(Cc1ccc(Cl)c(C#N)c1)C(=O)Cn1cnc2ccc(C3CCN(CC4CCOC4)CC3)cc2c1=O", "note": "(stereo not shown) [Example 144, N-[(4-Chloro-3-cyanophenyl)methyl]-N-methyl-2-[4-oxo-6-[1-(oxolan-3-ylmethyl)piperidin-4-yl]quinazolin-3-yl]acetamide]", "IC50": 86}
{"smiles": "CN(Cc1ccc(C#N)c(Cl)c1)C(=O)Cn1cnc2ccc(C3CCN(S(C)(=O)=O)CC3)cc2c1=O", "note": "[Example 145, N-[(3-Chloro-4-cyanophenyl)methyl]-N-methyl-2-[6-(1-methylsulfonylpiperidin-4-yl)-4-oxoquinazolin-3-yl]acetamide]", "IC50": 82}
{"smiles": "COCC(=O)N1CCC(c2ccc3ncn(CC(=O)N(Cc4ccc(Cl)c(Cl)c4)C4CC4)c(=O)c3c2)CC1", "note": "[Example 146, N-Cyclopropyl-N-[(3,4-dichlorophenyl)methyl]-2-[6-[1-(2-methoxyacetyl)piperidin-4-yl]-4-oxoquinazolin-3-yl]acetamide]", "IC50": 1}
{"smiles": "CC(=O)N1CC2CC1CC2c1ccc2ncn(CC(=O)NCc3ccc(Cl)c(Cl)c3)c(=O)c2c1", "note": "(stereo not shown) [Example 147, 2-[6-[2-Acetyl-2-azabicyclo[2.2.1]heptan-5-yl]-4-oxoquinazolin-3-yl]-N-[(3,4-dichlorophenyl)methyl]acetamide]", "IC50": 140}
{"smiles": "CC(=O)N1CCN(c2ccc3ncn(C(C)C(=O)NCc4ccc(Cl)c(Cl)c4)c(=O)c3c2)CC1", "note": "(stereo not shown) [Example 148, 2-[6-(4-Acetylpiperazin-1-yl)-4-oxoquinazolin-3-yl]-N-[(3,4-dichlorophenyl)methyl]propanamide]", "IC50": 15}
{"smiles": "CC(=O)N1CCN(c2ccc3ncn(C(C)C(=O)N(C)Cc4ccc(Cl)c(Cl)c4)c(=O)c3c2)CC1", "note": "(stereo not shown) [Example 149, 2-[6-(4-Acetylpiperazin-1-yl)-4-oxoquinazolin-3-yl]-N-[(3,4-dichlorophenyl)methyl]-N-methylpropanamide]", "IC50": 39}
{"smiles": "CC(=O)N1CCN(c2ccc3ncn(C4(C(=O)NCc5ccc(Cl)c(Cl)c5)CC4)c(=O)c3c2)CC1", "note": "[Example 150, 1-[6-(4-Acetylpiperazin-1-yl)-4-oxoquinazolin-3-yl]-N-[(3,4-dichlorophenyl)methyl]cyclopropane-1-carboxamide]", "IC50": 91}
{"smiles": "CC(=O)N1CCN(c2ccc3nc(C)n(CC(=O)NCc4ccc(Cl)c(Cl)c4)c(=O)c3c2)CC1", "note": "[Example 151, 2-[6-(4-Acetylpiperazin-1-yl)-2-methyl-4-oxoquinazolin-3-yl]-N-[(3,4-dichlorophenyl)methyl]acetamide]", "IC50": 21}
{"smiles": "CC(=O)N1CCN(c2ccc3[nH]c(=O)n(CC(=O)NCc4ccc(Cl)c(Cl)c4)c(=O)c3c2)CC1", "note": "[Example 152, 2-[6-(4-Acetylpiperazin-1-yl)-2,4-dioxo-1H-quinazolin-3-yl]-N-[(3,4-dichlorophenyl)methyl]acetamide]", "IC50": 180}
{"smiles": "COCCC(NC(=O)Cn1cnc2ccc(N3CCN(C(C)=O)CC3)cc2c1=O)c1ccc(Cl)c(Cl)c1", "note": "(stereo not shown) [Example 153, 2-[6-(4-Acetylpiperazin-1-yl)-4-oxoquinazolin-3-yl]-N-[1-(3,4-dichlorophenyl)-3-methoxypropyl]acetamide]", "IC50": 36}
{"smiles": "CN(Cc1ccc(C#N)c(Cl)c1)C(=O)Cn1cnc2ccc(C3CCN(C(=O)CC#N)CC3)cc2c1=O", "note": "[Example 154, N-[(3-Chloro-4-cyanophenyl)methyl]-2-[6-[1-(2-cyanoacetyl)piperidin-4-yl]-4-oxoquinazolin-3-yl]-N-methylacetamide]", "IC50": 2}
{"smiles": "CN(Cc1ccc(C#N)c(Cl)c1)C(=O)Cn1cnc2ccc(C3CCN(C(=O)CCC#N)CC3)cc2c1=O", "note": "[Example 155, N-[(3-Chloro-4-cyanophenyl)methyl]-2-[6-[1-(3-cyanopropanoyl)piperidin-4-yl]-4-oxoquinazolin-3-yl]-N-methylacetamide]", "IC50": 153}
{"smiles": "C[C@@H](O)C(=O)N1CCC(c2ccc3ncn(CC(=O)N(C)Cc4ccc(C#N)c(Cl)c4)c(=O)c3c2)CC1", "note": "[Example 156]", "IC50": 561}
{"smiles": "CC(C)[C@@H](O)C(=O)N1CCC(c2ccc3ncn(CC(=O)N(C)Cc4ccc(C#N)c(Cl)c4)c(=O)c3c2)CC1", "note": "[Example 157]", "IC50": 10}
{"smiles": "CO[C@H](C)C(=O)N1CCC(c2ccc3ncn(CC(=O)N(C)Cc4ccc(C#N)c(Cl)c4)c(=O)c3c2)CC1", "note": "[Example 158]", "IC50": 2}
{"smiles": "CO[C@@H](C)C(=O)N1CCC(c2ccc3ncn(CC(=O)N(C)Cc4ccc(C#N)c(Cl)c4)c(=O)c3c2)CC1", "note": "[Example 159]", "IC50": 1}
{"smiles": "COC(=O)N1CCC(c2ccc3ncn(CC(=O)N(C)Cc4ccc(C#N)c(Cl)c4)c(=O)c3c2)CC1", "note": "[Example 160, Methyl 4-[3-[2-[(3-chloro-4-cyanophenyl)methyl-methylamino]-2-oxoethyl]-4-oxoquinazolin-6-yl]piperidine-1-carboxylate]", "IC50": 158}
{"smiles": "CC(=O)N1CCC(c2ccc3ncn(CC(=O)NCc4cc(Cl)cc(C(F)(F)F)c4)c(=O)c3c2)CC1", "note": "[Example 161, 2-[6-(1-Acetylpiperidin-4-yl)-4-oxoquinazolin-3-yl]-N-[[3-chloro-5-(trifluoromethyl)phenyl]methyl]acetamide]", "IC50": 28}
{"smiles": "CC(=O)N1CCC(c2ccc3ncn(CC(=O)NCc4ccc(F)c(C(F)(F)F)c4)c(=O)c3c2)CC1", "note": "[Example 162]", "IC50": 44}
{"smiles": "CC(=O)N1CCC(c2ccc3ncn(CC(=O)NCc4ccc(Cl)c(C(F)(F)F)c4)c(=O)c3c2)CC1", "note": "[Example 163]", "IC50": 1}
{"smiles": "CC(=O)N1CCC(c2ccc3ncn(CC(=O)NCc4cc(Cl)cc(Cl)c4)c(=O)c3c2)CC1", "note": "[Example 164]", "IC50": 25}
{"smiles": "CN(Cc1ccc(Cl)c(Cl)c1)C(=O)Cn1cnc2ccc(C3CCN(C(=O)CS(N)(=O)=O)CC3)cc2c1=O", "note": "[Example 165, N-[(3,4-Dichlorophenyl)methyl]-N-methyl-2-[4-oxo-6-[1-(2-sulfamoylacetyl)piperidin-4-yl]quinazolin-3-yl]acetamide]", "IC50": 20}
{"smiles": "COCCOCC(=O)N1CCC(c2ccc3ncn(CC(=O)N(C)Cc4ccc(Cl)c(Cl)c4)c(=O)c3c2)CC1", "note": "[Example 166]", "IC50": 627}
{"smiles": "CO[C@H](C)C(=O)N1CCC(c2ccc3ncn(CC(=O)N(C)Cc4ccc(Cl)c(Cl)c4)c(=O)c3c2)CC1", "note": "[Example 167]", "IC50": 4}
{"smiles": "CO[C@@H](C)C(=O)N1CCC(c2ccc3ncn(CC(=O)N(C)Cc4ccc(Cl)c(Cl)c4)c(=O)c3c2)CC1", "note": "[Example 168]", "IC50": 27}
{"smiles": "CC(C)[C@@H](O)C(=O)N1CCC(c2ccc3ncn(CC(=O)N(C)Cc4ccc(Cl)c(Cl)c4)c(=O)c3c2)CC1", "note": "[Example 169]", "IC50": 35}
{"smiles": "CC(C)[C@H](O)C(=O)N1CCC(c2ccc3ncn(CC(=O)N(C)Cc4ccc(Cl)c(Cl)c4)c(=O)c3c2)CC1", "note": "[Example 170]", "IC50": 14}
{"smiles": "COCC(=O)N1CCC(c2ccc3ncn(CC(=O)N(C)Cc4ccc(Cl)c(Cl)c4)c(=O)c3c2)CC1", "note": "[Example 171]", "IC50": 3}
{"smiles": "CN(Cc1ccc(Cl)c(Cl)c1)C(=O)Cn1cnc2ccc(C3CCN(C(=O)C(C)(C)O)CC3)cc2c1=O", "note": "[Example 172]", "IC50": 21}
{"smiles": "COC(C)C(=O)N1CCC(c2ccc3ncn(CC(=O)N(C)Cc4ccc(Cl)c(Cl)c4)c(=O)c3c2)CC1", "note": "(stereo not shown) [Example 173]", "IC50": 8}
{"smiles": "C[C@@H](O)C(=O)N1CCC(c2ccc3ncn(CC(=O)N(C)Cc4ccc(Cl)c(Cl)c4)c(=O)c3c2)CC1", "note": "[Example 174]", "IC50": 2}
{"smiles": "C[C@H](O)C(=O)N1CCC(c2ccc3ncn(CC(=O)N(C)Cc4ccc(Cl)c(Cl)c4)c(=O)c3c2)CC1", "note": "[Example 175]", "IC50": 15}
{"smiles": "CN(Cc1ccc(Cl)c(Cl)c1)C(=O)Cn1cnc2ccc(C3CCN(C(=O)C4(O)CCC4)CC3)cc2c1=O", "note": "[Example 176]", "IC50": 46}
{"smiles": "CN(Cc1ccc(Cl)c(Cl)c1)C(=O)Cn1cnc2ccc(C3CCN(C(=O)C(O)CO)CC3)cc2c1=O", "note": "(stereo not shown) [Example 177]", "IC50": 36}
{"smiles": "CN(Cc1ccc(Cl)c(Cl)c1)C(=O)Cn1cnc2ccc(C3CCN(C(=O)C4COCCO4)CC3)cc2c1=O", "note": "(stereo not shown) [Example 178]", "IC50": 34}
{"smiles": "CN(Cc1ccc(Cl)c(Cl)c1)C(=O)Cn1cnc2ccc(C3CCN(C(=O)C4(O)CC4)CC3)cc2c1=O", "note": "[Example 179]", "IC50": 156}
{"smiles": "CN(Cc1ccc(Cl)c(Cl)c1)C(=O)Cn1cnc2ccc(C3CCN(C(=O)C4CCCO4)CC3)cc2c1=O", "note": "(stereo not shown) [Example 180]", "IC50": 5}
{"smiles": "CN(Cc1ccc(Cl)c(Cl)c1)C(=O)Cn1cnc2ccc(C3CCN(C(=O)C4(C)CCCO4)CC3)cc2c1=O", "note": "(stereo not shown) [Example 181]", "IC50": 8}
{"smiles": "CN(Cc1ccc(Cl)c(Cl)c1)C(=O)Cn1cnc2ccc(C3CCN(C(=O)C4CCOC4)CC3)cc2c1=O", "note": "(stereo not shown) [Example 182]", "IC50": 8}
{"smiles": "CN(Cc1ccc(Cl)c(Cl)c1)C(=O)Cn1cnc2ccc(C3CCN(C(=O)c4cnco4)CC3)cc2c1=O", "note": "[Example 183]", "IC50": 28}
